This is an account of results in ChEMBL document CHEMBL5252513, “Identification of a Benzoisoxazoloazepine Inhibitor (CPI-0610) of the Bromodomain and Extra-Terminal (BET) Family as a Candidate for Human Clinical Trials” (J Med Chem, 2016).

pEC50, pIC50: −log10 of the molar value. Where only a bound is given, the exact number is not on record here.

Series [1] in a line: Protein binding in mouse plasma. The settings on record: read-out: PPB (converted). In kind it is ADME, cell-free.
Series [2] has as its target T1, Bromodomain-containing protein 4 (Homo sapiens, UniProt O60885). The experiment in a line: Inhibition of BRD4 BD1 in human MV4-11 cells assessed as reduction of MYC RNA expression after 4 hrs by PCR analysis. Format: cell-based.
Series [3] in a line: Protein binding in dog plasma. In kind it is ADME, cell-free, Canis lupus familiaris. The settings on record: read-out: PPB (converted).
Series [4] can be described thus: Intrinsic clearance in dog liver microsomes. Format: ADME, Canis lupus familiaris, Microsome. The settings on record: read-out: CLH. Background: Liver microsomes are a subcellular fraction often used to study metabolism.
The nature of series [5]: Intrinsic clearance in mouse liver microsomes. Format: ADME, Microsome. The settings on record: read-out: CLH.
The target in series [6] is T1, Bromodomain-containing protein 4. In words: Inhibition of BRD4 BD1 (unknown origin) using biotinylated ligand incubated for 60 mins by TR-FRET assay. On the technique in general: In TR-FRET formats the signal depends on donor and acceptor labels being close together.
The nature of series [7]: Intrinsic clearance in human liver microsomes. Format: ADME, Microsome. The settings on record: read-out: CLH.
Series [8] can be described thus: Intrinsic clearance in rat liver microsomes. Format: ADME, Microsome.
Series [9] is described as follows: Protein binding in human plasma. The settings on record: read-out: PPB (converted). Format: ADME, cell-free.
Series [10] is described as follows: Protein binding in rat plasma. In kind it is ADME, cell-free. The settings on record: read-out: PPB (converted).
Series [11] in a line: Clearance in rat assessed as liver blood flow at 1 mg/kg,iv. Format: ADME, organism-based. The settings on record: in vivo.
Series [12] in a line: Volume of distribution at steady state in rat at 1 mg/kg,iv. The settings on record: in vivo, read-out: Vdss. Format: ADME, organism-based.
Series [13] can be described thus: Half life in rat plasma at 1 mg/kg,iv. In kind it is ADME, organism-based.
Series [14] is described as follows: Total clearance in rat at 1 mg/kg,iv. In kind it is ADME, organism-based. The settings on record: in vivo.
Series [15] can be described thus: Unbound clearance in rat at 1 mg/kg,iv. Format: ADME, organism-based. The settings on record: in vivo.

As usually defined, the pEC50 is the negative decadic logarithm of the EC50, by convention in mol/L. As usually defined, the pIC50 is −log10 of the IC50, conventionally taken in molar units. Read a high pIC50 as a small IC50. `Cc1noc2c1-c1ccccc1C(c1ccc(Cl)cc1)=N[C@H]2CC(N)C(F)(F)F` (stereo partly drawn): the fraction unbound in [1], in series [3], in [9] and in series [10] was 0.01 in each case. In addition, the negative logarithm of the EC50 (pEC50) in series [2] was less than 5.40. Besides, the predicted hepatic clearance in series [4] was 27 mL/min/kg; in [5], 41 mL/min/kg; in series [7] it was 13 mL/min/kg. The pIC50 in series [6] was 4.96. Also, in series [8], the predicted hepatic clearance (CLH) was 38 mL/min/kg.
On to `CNc1ccc2c(n1)C(c1ccc(Cl)cc1)=NCc1onc(C)c1-2`, for which, in [2], the pEC50 was 6.36. In series [6], the pIC50 was 7.23.
One may read the half-life as the time needed for the level to fall by half in the phase considered. A high value points to slow loss. Broadly, the clearance is the rate of elimination divided by the concentration. Low values mean a low capacity for elimination, high ones a high capacity for elimination. Turning to `Cc1noc2c1-c1ccc(-c3ccc(N)nc3)cc1C(c1ccc(Cl)cc1)=N[C@H]2CC(N)=O`, the fraction unbound is 0.02 in series [1], 0.02 in series [3], 0.04 in [9] and 0.09 in series [10]. Besides, the pEC50 in series [2] is 7.48. Moreover, in series [11], the QH was 230%. Moreover, in [12], the Vd was found to be 5.4 L/kg. Further, the predicted hepatic clearance in series [4] is 25 mL/min/kg; in series [5], 36 mL/min/kg; in [7], 13 mL/min/kg. Also, the half-life in series [13] is 40.8 min. The compound also had a pIC50 in [6] of 8.15. The clearance in [14] is 127 mL/min/kg. Also, the predicted hepatic clearance (CLH) in [8] is 34 mL/min/kg. The compound also gave a CL free in [15] of 1400 mL/min/kg.
On to `COc1ccc(C2=N[C@@H](CC(N)=O)c3onc(C)c3-c3ccccc32)cc1`, for which the fraction unbound in [1] was 0.11; in series [3], 0.14; in series [9], 0.12; in series [10], 0.21. Further, the pEC50 in [2] is 6.77. Besides, the predicted hepatic clearance in series [4] is 26 mL/min/kg; in series [5], 83 mL/min/kg; in series [7], 8 mL/min/kg. The same compound had a pIC50 in series [6] of 7.32. In addition, the predicted hepatic clearance (CLH) in series [8] was 33 mL/min/kg.
Consider `Cc1noc2c1-c1ccccc1C(c1ccc(Cl)cc1)=NC2`, for which the fraction unbound in series [1] was 0.01; in series [3] it was less than 0.01; in series [9] it was 0.01; in series [10], 0.01. Moreover, the predicted hepatic clearance in [4] was 29 mL/min/kg; in series [5] it was 52 mL/min/kg; in series [7], 15 mL/min/kg. Further, in [8], the predicted hepatic clearance (CLH) was 40 mL/min/kg.
In the case of `Cc1noc2c1-c1c[nH]c(=O)cc1C(c1ccc(Cl)cc1)=NC2`, the pEC50 in series [2] was 5.96. In series [6], this compound had a pIC50 of 6.28.
For `Cc1noc2c1-c1ccc(=O)n(C)c1C(c1ccc(Cl)cc1)=NC2`, in series [2], the pEC50 was 5.54. The compound further gave a pIC50 in series [6] of 6.12.
In turn, `Cc1noc(N)c1-c1ccccc1` had a pIC50 in series [6] of 4.70.
Same read-out and setting: the value for `COc1nccc2c1C(c1ccc(Cl)cc1)=NCc1onc(C)c1-2` was 6.36.
In the case of `CCNC(=O)NC1N=C(c2ccc(Cl)cc2)c2ccccc2-c2c(C)noc21` (stereo not drawn), the fraction unbound is 0.03 in [1], 0.02 in [3], 0.03 in [9] and 0.02 in series [10]. The pEC50 in [2] was 7.00. In addition, the predicted hepatic clearance in [4] was 21 mL/min/kg; in [5] it was 38 mL/min/kg; in series [7], 13 mL/min/kg. The compound also showed a pIC50 in series [6] of 7.48. Besides, the predicted hepatic clearance (CLH) in series [8] is 29 mL/min/kg.
In turn, `Cc1nnc2n1-c1ccccc1C(c1ccc(Cl)cc1)=NC2` gave a negative logarithm of the IC50 (pIC50) in [6] of 5.74.
As for `Cc1noc2c1-c1ccccc1C(c1ccc(Cl)cc1)=NC2C(N)=O` (stereo not drawn), the fraction unbound in [1] was 0.01; in series [3], 0.02; in [9] it was 0.02. The pEC50 in series [2] is 5.40. The predicted hepatic clearance in series [4] was 29 mL/min/kg; in series [5], 32 mL/min/kg; in series [7] it was 20 mL/min/kg. The pIC50 in series [6] is 4.82. In addition, in series [8], the predicted hepatic clearance (CLH) was 27 mL/min/kg.
As to `Cc1nsc2c1C(c1ccc(Cl)cc1)=NCc1onc(C)c1-2`, in series [2], the pEC50 was less than 5.40. In series [6], this compound gave a pIC50 of less than 4.10.
With `Cc1onc2c1-c1ccccc1C(c1ccc(Cl)cc1)=NC2`, in [6], the pIC50 is 5.89.
In the case of `Cc1noc2c1-c1ccccc1C(c1ccc(Cl)cc1)=N[C@@H]2CC(=O)OC(C)(C)C`, in series [6], the pIC50 was less than 4.10.
In the case of `Cc1noc2c1-c1cn(C)nc1C(c1ccc(Cl)cc1)=NC2`, the pEC50 in [2] is 5.59. In series [6], this compound gave a pIC50 of 6.23.
Consider `CCNC(=O)C[C@@H]1N=C(c2ccc(Cl)cc2)c2ccccc2-c2c(C)noc21`, for which the fraction unbound in [1] was 0.01; in series [3], 0.02; in [9], 0.02; in series [10], 0.04. The pEC50 in series [2] was 6.68. Further, the predicted hepatic clearance was 29 mL/min/kg in series [4], 61 mL/min/kg in [5] and 18 mL/min/kg in series [7]. Also, in [6], the pIC50 is 7.28. Further, in series [8], the predicted hepatic clearance (CLH) is 42 mL/min/kg.
Turning to `Cc1noc2c1-c1ccccc1C(c1ccccc1)=N[C@H]2CC(N)=O`, the fraction unbound in series [1] is 0.16; in [3] it was 0.12; in [9], 0.19; in series [10], 0.2. The pEC50 in series [2] is 6.60. Also, the predicted hepatic clearance in [4] was 17 mL/min/kg; in [5] it was 10 mL/min/kg; in [7] it was less than 5 mL/min/kg. Further, in series [6], the pIC50 was 6.96. Further, the predicted hepatic clearance (CLH) in series [8] was 28 mL/min/kg.
In the case of `Cc1ccc(C2=N[C@@H](CC(N)=O)c3onc(C)c3-c3ccccc32)cc1`, the fraction unbound in series [1] was 0.07; in series [3], 0.08; in [9], 0.1; in [10] it was 0.1. Besides, the pEC50 in series [2] was 6.77. The predicted hepatic clearance was 29 mL/min/kg in [4], 78 mL/min/kg in [5] and 11 mL/min/kg in series [7]. In [6], this compound had a pIC50 of 7.28. Besides, in series [8], the predicted hepatic clearance (CLH) is 49 mL/min/kg.
As for `Cc1noc2c1-c1ccc(-c3cn(C)cn3)cc1C(c1ccc(Cl)cc1)=N[C@H]2CC(N)=O`, the fraction unbound is 0.11 in series [1], 0.11 in series [3], 0.14 in series [9] and 0.14 in [10]. The pEC50 in series [2] is 7.52. In addition, the predicted hepatic clearance in series [4] is 23 mL/min/kg; in series [5], 28 mL/min/kg; in series [7], 11 mL/min/kg. Also, the pIC50 in [6] is 7.96. In [8], the predicted hepatic clearance (CLH) is less than 10 mL/min/kg.
As for `Cc1noc2c1-c1ccccc1C(c1ccc(Cl)cc1)=NN2`, in [6], the pIC50 was 6.06.
